From patent publication EP4567035A1, “NOVEL COMPOUND AS HYPOXIA-INDUCIBLE FACTOR 1(HIF-1) INHIBITOR OR VASCULAR ENDOTHELIAL GROWTH FACTOR (VEGF) INHIBITOR, AND PHARMACEUTICAL COMPOSITION COMPRISING SAME” (Nextgen Bioscience Co., Ltd., priority 2022, dated 2024)
pIC50: −log10 of the molar value. Like-named read-outs stand apart in the source and are kept apart here.

Legend:
VEGF = test: Evaluation of VEGF protein secretion level (Human VEGF ELISA) in ARPE-19 cell medium under hypoxic conditions; assay type: cell-based
Summary of the method: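 Human ARPE-19 cells were pretreated 2 h with compound (0.1 nM–10 µM, in DMEM/F12 with 1% FBS), then held 24 h in hypoxia (1% O2, 5% CO2). Secreted VEGF in the supernatant was quantified by ELISA (A450). The value is the concentration range giving ≥50% VEGF reduction versus untreated control.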

HIF-1α = target: T1, HIF-1α (Homo sapiens, UniProt Q16665); test: Analysis of HIF-1α protein expression (Western blot) in ARPE-19 cells under mixed hypoxic condition; assay type: cell-based; details: values marked * in the table, mixed hypoxic condition (1% oxygen + CoCl2) for 24 hours, concentration range at which HIF-1α expression is reduced by 50% vs untreated control, read-out: IC50 HIF-1α, Hypoxia(24h)
T1 construct: endogenous in cells; host or cells: ARPE-19 (ATCC CRL-2302)
T1 sequence (Q16665 whole entry): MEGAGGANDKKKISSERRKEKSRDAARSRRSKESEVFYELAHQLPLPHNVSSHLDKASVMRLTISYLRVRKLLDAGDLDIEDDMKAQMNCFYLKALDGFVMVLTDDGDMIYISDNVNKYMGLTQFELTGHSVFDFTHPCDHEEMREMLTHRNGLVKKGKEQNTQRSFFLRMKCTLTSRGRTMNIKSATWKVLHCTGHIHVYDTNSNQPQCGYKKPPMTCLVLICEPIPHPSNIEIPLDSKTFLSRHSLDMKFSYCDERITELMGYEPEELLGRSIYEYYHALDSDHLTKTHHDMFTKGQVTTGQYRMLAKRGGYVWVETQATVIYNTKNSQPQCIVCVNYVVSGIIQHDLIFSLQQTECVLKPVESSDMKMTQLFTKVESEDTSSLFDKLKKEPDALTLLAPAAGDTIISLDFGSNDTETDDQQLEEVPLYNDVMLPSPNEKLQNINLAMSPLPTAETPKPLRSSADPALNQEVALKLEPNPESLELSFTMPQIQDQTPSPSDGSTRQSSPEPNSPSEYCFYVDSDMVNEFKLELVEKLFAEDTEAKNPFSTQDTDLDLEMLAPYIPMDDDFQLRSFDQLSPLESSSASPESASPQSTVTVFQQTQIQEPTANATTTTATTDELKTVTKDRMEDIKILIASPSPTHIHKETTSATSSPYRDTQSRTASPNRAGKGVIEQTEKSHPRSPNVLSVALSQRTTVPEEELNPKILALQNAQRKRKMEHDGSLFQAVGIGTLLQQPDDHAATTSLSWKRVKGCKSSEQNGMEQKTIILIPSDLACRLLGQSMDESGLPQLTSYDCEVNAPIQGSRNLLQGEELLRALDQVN
Summary of the method: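 ARPE-19 cells were pretreated 16 h or 2 h with compound (0.1 nM–10 µM, serum-free DMEM/F12), then held 1 h or 24 h in mixed hypoxia (1% O2 plus CoCl2). HIF-1α was quantified by Western blot against β-actin; the concentration range giving ≥50% reduction vs untreated control was reported.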

[1] = ARPE-19 cells, pretreated 2 hours, 24 hours hypoxic conditions, secreted VEGF in medium supernatant by ELISA, concentration range reducing VEGF by 50% vs untreated control, read-out: IC50 VEGF
[2] = ARPE-19 cells, pretreated 2 hours, 24 hours hypoxic conditions, ELISA, read-out: concentration at which the secreted VEGF protein level was suppressed to less than 50%
[3] = Experimental Example 2 (HIF-1α Western blot), read-out: concentration at which the expression level of VEGF was suppressed to less than 50%

Row | SMILES | pIC50 (VEGF; [1]) | DC50 (HIF-1α) | pIC50 (VEGF; [2]) | pIC50 (VEGF; [3])
1 | Cn1cc(-c2cc(F)cc(CNC(=O)c3ncnc4nc(C5CC6CC6C5)[nH]c34)c2)cn1 (stereo not shown) [Example 78, 8-(Bicyclo[3.1.0]hexan-3-yl)-N-(3-fluoro-5-(1-methyl-1H-pyrazol-4-yl)benzyl)-7H-purine-6-carboxamide] | 6.00 to 7.00 | < 0.1 µM | – | –
2 | O=C(NCc1cc(F)cc(-c2cnn(-c3ccc(F)cc3)c2)c1)c1ncnc2nc(C3CCC(F)(F)C3)[nH]c12 (stereo not shown) [Example 80, 8-(3,3-Difluorocyclopentyl)-N-(3-fluoro-5-(1-(4-fluorophenyl)-1H-pyrazol-4-yl)benzyl)-7H-purine-6-carboxamide] | > 7.00 | < 0.1 µM | – | –
3 | O=C(NCc1cc(F)cc(-c2cnn(-c3cccc(F)c3)c2)c1)c1ncnc2nc(C3CCC(F)(F)C3)[nH]c12 (stereo not shown) [Example 81, 8-(3,3-Difluorocyclopentyl)-N-(3-fluoro-5-(1-(3-fluorophenyl)-1H-pyrazol-4-yl)benzyl)-7H-purine-6-carboxamide] | 6.00 to 7.00 | < 0.1 µM | – | –
4 | O=C(NCc1cc(F)cc(-c2cnn(-c3ccc(F)nc3)c2)c1)c1ncnc2nc(C3CCC(F)(F)C3)[nH]c12 (stereo not shown) [Example 82, 8-(3,3-Difluorocyclopentyl)-N-(3-fluoro-5-(1-(6-fluoropyridin-3-yl)-1H-pyrazol-4-yl)benzyl)-7H-purine-6-carboxamide] | > 7.00 | < 0.1 µM | > 7.00 | > 7.00
5 | O=C(NCc1cc(F)cc(-c2cnn(-c3cccnc3)c2)c1)c1ncnc2nc(C3CCC(F)(F)C3)[nH]c12 (stereo not shown) [Example 83, 8-(3,3-Difluorocyclopentyl)-N-(3-fluoro-5-(1-(pyridin-3-yl)-1H-pyrazol-4-yl)benzyl)-7H-purine-6-carboxamide] | > 7.00 | < 0.1 µM | > 7.00 | > 7.00
6 | O=C(NCc1cc(F)cc(-c2cnn(-c3ccc(F)cc3)c2)c1)c1ncnc2nc([C@H]3CCCO3)[nH]c12 [Example 85, (R)-N-(3-fluoro-5-(1-(4-fluorophenyl)-1H-pyrazol-4-yl)benzyl)-8-(tetrahydrofuran-2-yl)-7H-purine-6-carboxamide] | 5.00 to 6.00 | < 0.1 µM | – | –
7 | O=C1CC[C@@H](c2nc3ncnc(C(=O)NCc4cc(F)cc(-c5cnn(-c6ccc(F)cc6)c5)c4)c3[nH]2)C1 [Example 86, (R)-N-(3-fluoro-5-(1-(4-fluorophenyl)-1H-pyrazol-4-yl)benzyl)-8-(3-oxocyclopentyl)-7H-purine-6-carboxamide] | 6.00 to 7.00 | 0.1 to 1 µM | – | –
8 | O=C(NCc1cc(F)cc(-c2cnn(-c3ccc(F)c(Cl)c3)c2)c1)c1ncnc2nc(C3CCCC3)[nH]c12 [Example 87, N-(3-(1-(3-chloro-4-fluorophenyl)-1H-pyrazol-4-yl)-5-fluorobenzyl)-8-cyclopentyl-7H-purine-6-carboxamide] | 6.00 to 7.00 | < 0.1 µM | – | –
9 | O=C1CC[C@H](c2nc3ncnc(C(=O)NCc4cc(F)cc(-c5cnn(-c6ccc(F)cc6)c5)c4)c3[nH]2)C1 [Example 88, (S)-N-(3-fluoro-5-(1-(4-fluorophenyl)-1H-pyrazol-4-yl)benzyl)-8-(3-oxocyclopentyl)-7H-purine-6-carboxamide] | 6.00 to 7.00 | 0.1 to 1 µM | – | –
10 | O=C(NCc1cc(F)cc(-c2cnn(-c3ccc(F)cc3)c2)c1)c1ncnc2nc(C3CC(F)(F)C3)[nH]c12 [Example 92, 8-(3,3-Difluorocyclobutyl)-N-(3-fluoro-5-(1-(4-fluorophenyl)-1H-pyrazol-4-yl)benzyl)-7H-purine-6-carboxamide] | 6.00 to 7.00 | 0.1 to 1 µM | – | –
11 | O=C(NCc1cc(F)cc(-c2cnn(-c3ccc(F)cc3)c2)c1)c1nccc2nc(C3CCCC3)[nH]c12 [Example 93, 2-Cyclopentyl-N-(3-fluoro-5-(1-(4-fluorophenyl)-1H-pyrazol-4-yl)benzyl)-3H-imidazo[4,5-c]pyridine-4-carboxamide] | 6.00 to 7.00 | < 0.1 µM | – | –
12 | O=C(NCc1cccc(-c2cnn(-c3ccc(F)cc3)c2)c1F)c1ncnc2nc(C3CCCC3)[nH]c12 [Example 95, 8-Cyclopentyl-N-(2-fluoro-3-(1-(4-fluorophenyl)-1H-pyrazol-4-yl)benzyl)-7H-purine-6-carboxamide] | 6.00 to 7.00 | 0.1 to 1 µM | – | –
13 | CC1(C)CC(c2nc3ncnc(C(=O)NCc4cc(F)cc(-c5cnn(-c6ccc(F)cc6)c5)c4)c3[nH]2)C1 [Example 97, 8-(3,3-Dimethylcyclobutyl)-N-(3-fluoro-5-(1-(4-fluorophenyl)-1H-pyrazol-4-yl)benzyl)-7H-purine-6-carboxamide] | 6.00 to 7.00 | 0.1 to 1 µM | – | –
14 | O=C(NCc1cc(F)cc(-c2cnn(-c3ccc(F)cc3)c2)c1)c1ncnc2nc(C3CC4(C3)CC(F)(F)C4)[nH]c12 [Example 98, 8-(6,6-Difluorospiro[3.3]heptan-2-yl)-N-(3-fluoro-5-(1-(4-fluorophenyl)-1H-pyrazol-4-yl)benzyl)-7H-purine-6-carboxamide] | < 5.00 | 1 to 10 µM | – | –
15 | O=C(NCc1cc(F)cc(-c2cnn(-c3ccc(F)cc3)c2)c1)c1ncnc2nc(C34CC(C3)C4)[nH]c12 [Example 99, 8-(Bicyclo[1.1.1]pentan-1-yl)-N-(3-fluoro-5-(1-(4-fluorophenyl)-1H-pyrazol-4-yl)benzyl)-7H-purine-6-carboxamide] | < 5.00 | 1 to 10 µM | – | –
16 | O=C(NCc1cc(F)cc(-c2cnn(-c3ccc(F)cc3)c2)c1)c1ncnc2nc(C3CC4(CCC4)C3)[nH]c12 [Example 100, N-(3-fluoro-5-(1-(4-fluorophenyl)-1H-pyrazol-4-yl)benzyl)-8-(spiro[3.3]heptan-2-yl)-7H-purine-6-carboxamide] | 5.00 to 6.00 | 1 to 10 µM | – | –
17 | O=C(NCc1cc(F)cc(-c2cnn(-c3ccc(F)cc3)c2)c1)c1ncnc2nc(C34CC(F)(C3)C4)[nH]c12 [Example 101, N-(3-fluoro-5-(1-(4-fluorophenyl)-1H-pyrazol-4-yl)benzyl)-8-(3-fluorobicyclo[1.1.1]pentan-1-yl)-7H-purine-6-carboxamide] | 5.00 to 6.00 | 0.1 to 1 µM | – | –
18 | O=C(NCc1cc(Cl)cc(-c2cnn(-c3ccc(F)cc3)c2)c1)c1ncnc2nc(C3CCCC3)[nH]c12 [Example 104, N-(3-chloro-5-(1-(4-fluorophenyl)-1H-pyrazol-4-yl)benzyl)-8-cyclopentyl-7H-purine-6-carboxamide] | 6.00 to 7.00 | < 0.1 µM | – | –
19 | O=C(Nc1cc(F)cc(-c2cnn(-c3ccc(F)cc3)c2)c1)c1ncnc2nc(C3CCCC3)[nH]c12 [Example 105, 8-Cyclopentyl-N-(3-fluoro-5-(1-(4-fluorophenyl)-1H-pyrazol-4-yl)phenyl)-7H-purine-6-carboxamide] | < 5.00 | > 10 µM | – | –
20 | O=C(NCc1cc(F)cc(-c2cnn(-c3ccc(F)cc3)c2)c1)c1ncnc2nc(C3CC(C(=O)O)C3)[nH]c12 (stereo not shown) [Example 106, 3-(6-((3-Fluoro-5-(1-(4-fluorophenyl)-1H-pyrazol-4-yl)benzyl)carbamoyl)-7H-purin-8-yl)cyclobutanecarboxylic acid] | < 5.00 | > 10 µM | – | –
21 | O=C(NCc1cc(F)cc(-c2cnn(-c3ccc(F)cc3)c2)c1)c1ccnc2nc(C3CCCC3)[nH]c12 [Example 107, 2-Cyclopentyl-N-(3-fluoro-5-(1-(4-fluorophenyl)-1H-pyrazol-4-yl)benzyl)-1H-imidazo [4,5-b] pyridine-7-carboxamide] | < 5.00 | > 10 µM | – | –
